Measured values taken from patent US20100291236A1, “OSMIUM COMPOUNDS” (THE UNIVERSITY OF WARWICK, priority 2006, published 2010).
Read-outs that look alike come from different tables or passages of the source.

Key:
[1] = Acidity (pKa / pKa*) of coordinated water, 1H NMR pH* titration
Description: pKa* calculations. […] The chemical shifts of the arene ring protons were plotted against pH*. The pH* titration curves were fitted to the Henderson-Hasselbalch equation, with the assumption that the observed chemical shifts are weighted averages according to the populations of the protonated and deprotonated species.

[2] = tested on: human lung A549 cancer cells; experiment: Cytotoxicity towards A549 cells, sulforhodamine B (SRB) assay; assay type: cell-based
Method: (§1) Experimental: Cytotoxicity Towards A2780 and A549 Human Cancer Cells. After plating, human ovarian A2780 cancer cells were treated with Os^II complexes on day 3, and human lung A549 cancer cells on day 2, at concentrations ranging from 2 μM to 50 μM. Solutions of the Os^II complexes were made up in 0.125% DMSO to assist dissolution. Cells were exposed to the complexes for 24 h, washed, supplied with fresh medium, allowed to grow for three doubling times (72 h), and then the protein content measured (proportional to cell survival) using the sulforhodamine B (SRB) assay.
(§2) Cancer Cell Cytotoxicity. After plating, human ovarian A2780 cancer cells were treated with OsII complexes on day 3, and human lung A549 cancer cells on day 2, at concentrations ranging from 0.1 μM to 100 μM. Solutions of the OsII complexes were made up in 0.125% DMSO to assist dissolution. Cells were exposed to the complexes for 24 h, washed, supplied with fresh medium, allowed to grow for three doubling times (72 h), and then the protein content measured (proportional to cell survival) using the sulforhodamine B (SRB) assay.10

[3] = Stability in isotonic saline solutions; assay type: physicochemical; conditions: after 16 days of storage in the dark
Method: Stability tests on AFAP42, 64, 62, 05, 51 and 65 in isotonic saline solutions were also performed.

[4] = tested on: human ovarian A2780 cancer cells; experiment: Cytotoxicity towards A2780 cells, sulforhodamine B (SRB) assay; assay type: cell-based
Method: as §1, §2

[5] = tested on: 9-ethyl guanine (9EtG); experiment: Reaction with nucleobase model 9-ethyl guanine, 1H NMR; assay type: binding; conditions: for % 9EtG nucleobase adduct: 1 mM complex, 1 mol equivalent 9EtG, D2O
Method: (§3) Since DNA is believed to be the main target for metal anticancer drugs, nucleobase binding reactions of compounds 3-6, with nucleobase models, 9-ethyl guanine (9EtG) and 9-ethyl adenine (9EtA), were investigated.
(§4) Solutions of 3-6 (1 mM) (present as an equilibrium between 3-6 and their respective aqua adducts as the major species) with 1 mol equivalent of 9EtG (Table 14) or 9EtA (Table 15) in D2O were prepared and ^1H NMR spectra were taken at different time intervals.
(§5) Interactions with Nucleobases. The reaction of compounds 8-12 with nucleobases typically involved addition of a solution containing 1 mol equiv of nucleobase in D2O, to an equilibrium solution of compounds 8-12 in D2O (>90% aqua). The pH* value of the sample was adjusted if necessary so as to remain close to 7.4 (physiological). ^1H NMR spectra of these solutions were recorded at 298 K after various time intervals.

[6] = Hydrolysis (aquation) kinetics followed by 1H NMR; assay type: physicochemical; conditions: 5% MeOD-d4/95% D2O, pH* 2
Method: Hydrolysis. […] The rate of hydrolysis was determined by fitting plots of concentrations (determined by ^1H NMR peak integrals) versus time to a pseudo first-order equation using ORIGIN version 5.0 (Microcal Software Ltd.).

[7] = Effect of chloride concentration on aqua adduct formation; assay type: physicochemical; conditions: for % aqua adduct: 1 mM complex in D2O, t = 10 min; for % of aqua complex formed: 1 mM complex
Description: The effects of chloride levels on the distribution of AFAP42 (“prodrug”) and its aqua analogue (“active species”) were investigated. […] Results are summarised in table 6, showing how the hydrolysis of AFAP42 is suppressed in solutions with chloride concentrations similar to those found in blood plasma. At chloride concentrations typical of the cells cytoplasm, complex AFAP42 hydrolyses to some extent and at chloride concentrations typical of the nucleus (where the proposed target, DNA, can be found), the complex is present predominantly as the “active species” the aqua complex.
The effects of chloride concentrations typical of blood plasma (100 mM), cell cytoplasm (22.7 mM) and cell nucleus (4 mM) on the aqueous chemistry of 3 and 6 were investigated. ^1H NMR spectra of 3 or 6 (1 mM) were recorded within 10 min of sample preparation and after incubation at 310 K for 24 h.

[8] = as above; assay type: physicochemical; conditions: for % aqua adduct: 1 mM complex in D2O, t = 26 h
[9] = tested on: 9-ethyl adenine (9EtA); experiment: Reaction with nucleobase model 9-ethyl adenine, 1H NMR; assay type: binding; conditions: for % 9EtA nucleobase adduct: 1 mM complex, 1 mol equivalent 9EtA, D2O
Method: as §3, §4, §5

[10] = tested on: human ovarian A2780 cancer cells; conditions: Peacock et al, J. Am. Chem. Soc. 2006; said to be erroneous; cited from earlier work
[11] = Stability against formation of hydroxo-bridged dimers; assay type: physicochemical; conditions: 50 μM; even after incubation at 310 K (24 h)
Description: Complexes containing O,O-chelated ligands are deactivated at micromolar concentrations by loss of the chelate and formation of inert hydroxo-bridged dimers.

[12] = Table 7, 24 h exposure, 72 h growth, 2-50 μM, read-out: IC50/μM A549
[13] = Table 7, 24 h exposure, 72 h growth, 2-50 μM, read-out: IC50/μM A2780

## [(η^6-bip)Os(pico)Cl] [AFAP64]
[1]
  pKa of water coordinated on hydrolysis (aqua adduct of complex): 6.30
[2]; [12]
  IC50: 8 µM
[3]
  Stability of isotonic saline solutions: stable
[4]; [13]
  IC50: 4.2 µM

## Cc1cccc(C(=O)[O][Os][Cl])n1.c1ccc(-c2ccccc2)cc1 [Compound 3, [(η^6-bip)Os(6-Me-pico)Cl]]
[5]; t = 10
  % 9EtG nucleobase adduct: 0%
[5]; t = 24 h
  % 9EtG nucleobase adduct: 30%
[5]; t = 72 h
  % 9EtG nucleobase adduct: 30%
[5]; time not given
  binding to 9EtG (nucleobase adduct formation): 30%
[1]
  pKa* of the aqua adduct: 6.34
[2]; Table 8, compounds 1-6, read-out: A549 IC50
  IC50: > 50 µM
[6]; 288 K
  Hydrolysis k/h^−1: 0.219 ± 0.005 h⁻¹
[6]; 298 K
  Hydrolysis k/h^−1: 0.676 ± 0.039 h⁻¹
[7]; 4 mM NaCl
  % aqua adduct: 50%
[7]; 22.7 mM NaCl
  % aqua adduct: 60%
[7]; 100 mM NaCl
  % aqua adduct: 35%
[8]; 4 mM NaCl
  % aqua adduct: 70%
[8]; 22.7 mM NaCl
  % aqua adduct: 49%
[8]; 100 mM NaCl
  % aqua adduct: 27%
[4]; Table 8, compounds 1-6, read-out: A2780 IC50
  IC50: > 50 µM
[9]; t = 10
  % 9EtA nucleobase adduct: 0%
[9]; t = 24 h
  % 9EtA nucleobase adduct: 9%
[9]; t = 72 h
  % 9EtA nucleobase adduct: 9%
[9]; time not given
  binding to 9EtA (nucleobase adduct formation): 9%

## NCCN.[Cl][Os+].c1ccc(-c2ccccc2)cc1.c1ccc([B-](c2ccccc2)(c2ccccc2)c2ccccc2)cc1 [(III)]
[10]
  Activity toward A2780 cells as previously reported: inactive

## [(η^6-p-cym)Os(pico)Cl] [AFAP42]
[11]
  Stability with no evidence of dimer formation: 100%
[1]
  pKa of water coordinated on hydrolysis (aqua adduct of complex): 6.62
[2]; [12]
  IC50: 17 µM
[7]; 4 mM [Cl], T = 0
  % of aqua complex formed: 56.1% Aqua
[7]; 4 mM [Cl], T = 24 h (310 K)
  % of aqua complex formed: 65.5% Aqua
[7]; 22.7 mM [Cl], T = 0
  % of aqua complex formed: 29.8% Aqua
[7]; 100 mM [Cl], T = 0
  % of aqua complex formed: 12% Aqua
[7]; 100 mM [Cl], T = 24 h (310 K)
  % of aqua complex formed: 12.9% Aqua
[3]
  Stability of isotonic saline solutions: stable
[8]; 4 mM [Cl], 50 μM complex, T = 0
  % of aqua complex formed: 73.5% Aqua
[8]; 4 mM [Cl], 50 μM complex, T = 24 h (310 K)
  % of aqua complex formed: 72.1% Aqua
[8]; 22.7 mM [Cl], 50 μM complex, T = 0
  % of aqua complex formed: 44.8% Aqua
[8]; 22.7 mM [Cl], 50 μM complex, T = 24 h (310 K)
  % of aqua complex formed: 45.2% Aqua
[8]; 22.7 mM [Cl], 1 mM complex, T = 24 h (310 K)
  % of aqua complex formed: 30.5% Aqua
[8]; 100 mM [Cl], 50 μM complex, T = 0
  % of aqua complex formed: 0% Aqua
[8]; 100 mM [Cl], 50 μM complex, T = 24 h (310 K)
  % of aqua complex formed: 0% Aqua
[4]; [13]
  IC50: 4.5 µM

## F[P-](F)(F)(F)(F)F.NCCN.[Cl][Os+].c1ccc(-c2ccccc2)cc1 [AFAP05, [(η^6-bip)Os(en)Cl]PF6]
[2]; [12]
  IC50: 10 µM
[3]
  Stability of isotonic saline solutions: stable
[4]; [13]
  IC50: 7 µM
